In ChEMBL document CHEMBL1138260, “The first biologically active synthetic analogues of FK228, the depsipeptide histone deacetylase inhibitor” (J Med Chem, 2007):
Calls of active or inactive are those of the source. No cut-off for these calls is given here.

How the values were obtained:
[1] = target: T1, Protein deacetylase HDAC6 (Homo sapiens, UniProt Q9UBN7)
T1 sequence (Q9UBN7 whole entry): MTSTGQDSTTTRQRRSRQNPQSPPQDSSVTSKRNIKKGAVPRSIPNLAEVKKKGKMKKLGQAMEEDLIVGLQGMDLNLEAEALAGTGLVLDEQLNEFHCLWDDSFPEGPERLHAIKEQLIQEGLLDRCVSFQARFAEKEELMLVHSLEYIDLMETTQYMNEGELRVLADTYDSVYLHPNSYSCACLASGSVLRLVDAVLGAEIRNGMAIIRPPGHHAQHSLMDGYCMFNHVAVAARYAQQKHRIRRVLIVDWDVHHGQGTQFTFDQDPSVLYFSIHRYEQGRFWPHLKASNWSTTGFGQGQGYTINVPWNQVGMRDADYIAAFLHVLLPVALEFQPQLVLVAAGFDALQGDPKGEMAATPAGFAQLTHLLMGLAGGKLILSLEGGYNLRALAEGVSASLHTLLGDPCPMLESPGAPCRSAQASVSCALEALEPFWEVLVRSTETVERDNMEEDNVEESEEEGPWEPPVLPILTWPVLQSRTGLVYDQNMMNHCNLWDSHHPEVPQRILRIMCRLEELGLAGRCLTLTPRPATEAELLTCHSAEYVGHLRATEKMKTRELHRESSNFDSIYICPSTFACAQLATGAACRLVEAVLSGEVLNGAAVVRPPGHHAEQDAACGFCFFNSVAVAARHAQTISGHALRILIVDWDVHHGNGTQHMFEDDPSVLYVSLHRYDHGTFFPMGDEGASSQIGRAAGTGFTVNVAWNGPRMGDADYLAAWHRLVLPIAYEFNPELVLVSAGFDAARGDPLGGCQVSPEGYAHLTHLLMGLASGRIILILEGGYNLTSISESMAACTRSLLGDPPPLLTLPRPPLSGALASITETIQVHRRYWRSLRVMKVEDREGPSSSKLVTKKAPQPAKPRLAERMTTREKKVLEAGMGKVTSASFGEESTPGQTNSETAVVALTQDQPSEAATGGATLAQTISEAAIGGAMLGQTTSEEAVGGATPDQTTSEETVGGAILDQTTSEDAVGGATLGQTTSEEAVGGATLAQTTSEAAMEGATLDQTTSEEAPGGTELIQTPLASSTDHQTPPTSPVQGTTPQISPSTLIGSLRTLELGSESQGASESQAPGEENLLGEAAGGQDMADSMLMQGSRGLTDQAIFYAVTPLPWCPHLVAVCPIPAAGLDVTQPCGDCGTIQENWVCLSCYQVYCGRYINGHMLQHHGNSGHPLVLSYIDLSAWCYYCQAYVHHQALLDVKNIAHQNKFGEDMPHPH
Description: Inhibition of HDAC6 in presence of DTT

Histone deacetylase = assay: Inhibition of HDAC in HeLa nuclear extract in presence of DTT; assay type: protein assay, Homo sapiens
MCF7 [2] = assay: Growth inhibition of MCF7 cells; assay type: functional, cell-based; settings: Homo sapiens
Histone deacetylase 1 = Histone deacetylase 1 (Homo sapiens, UniProt Q13547)
Sequence of Histone deacetylase 1 (Q13547 whole entry): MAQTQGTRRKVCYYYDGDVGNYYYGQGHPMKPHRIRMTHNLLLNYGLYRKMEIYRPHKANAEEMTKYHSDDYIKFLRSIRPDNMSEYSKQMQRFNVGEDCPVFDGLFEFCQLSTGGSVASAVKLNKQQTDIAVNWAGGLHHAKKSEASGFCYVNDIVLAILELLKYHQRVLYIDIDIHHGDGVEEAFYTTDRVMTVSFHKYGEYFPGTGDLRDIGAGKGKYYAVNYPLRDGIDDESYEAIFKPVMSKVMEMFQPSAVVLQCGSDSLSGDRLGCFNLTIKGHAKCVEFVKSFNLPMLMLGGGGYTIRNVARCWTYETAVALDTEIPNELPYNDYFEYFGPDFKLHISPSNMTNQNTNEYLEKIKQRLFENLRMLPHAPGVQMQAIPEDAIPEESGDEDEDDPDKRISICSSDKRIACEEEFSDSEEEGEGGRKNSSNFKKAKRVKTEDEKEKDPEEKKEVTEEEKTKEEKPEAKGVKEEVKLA
Description: Inhibition of HDAC1 in presence of DTT

MCF7 [3] = assay: Induction of p21cip1/waf1 promoter activity in MCF7 cells after 24 hrs; assay type: functional, cell-based; settings: Homo sapiens

IC50 [1] | IC50 (Histone deacetylase) | IC50 (MCF7 [2]) | IC50 (Histone deacetylase 1) | Structure (SMILES) | Activity (MCF7 [3])
4920 nM | 7 nM | > 1000 nM | 17.5 nM | CC(C)[C@H]1NC(=O)[C@@H](C)NC(=O)[C@@H](C)NC(=O)C[C@@H](/C=C/CCS)OC(=O)CNC1=O | 
897 nM | 7.2 nM | 5.1 nM | 1.6 nM | CC(C)[C@H]1NC(=O)C[C@H]2/C=C/CCSSC[C@@H](NC1=O)C(=O)N[C@H](C(C)C)C(=O)NCC(=O)O2 | 
 | > 3200 nM | > 1000 nM |  | COC(=O)CNC(=O)[C@H](NC(=O)[C@H]1CSSCC/C=C/[C@@H](O)CC(=O)N[C@H](C)C(=O)N1)C(C)C | 
881 nM | 15 nM | 37 nM | 1.6 nM | CC(C)[C@H]1NC(=O)[C@H]2CSSCC/C=C/[C@H](CC(=O)N[C@H](C)C(=O)N2)OC(=O)CNC1=O | Active
> 10000 nM | 242 nM | 55 nM | > 100 nM | CC(=O)SCC/C=C/[C@@H]1CC(=O)N[C@H](C)C(=O)N[C@H](C)C(=O)N[C@H](C(C)C)C(=O)NCC(=O)O1 | 
